For one compound, Kcat and Km results are on record in US8076310B2, “Phosphonate nucleosides useful as active ingredients in pharmaceutical compositions for the treatment of viral infections, and intermediates for their production” (K.U.Leuven Research & Development, priority 2004, dated 2011).

By Km is commonly meant the concentration of substrate that gives half-maximal velocity.

The assay addresses T1, HIV reverse transcriptase (Human immunodeficiency virus type 1 group M subtype B, UniProt P04585).
T1 construct: 0.025 U/μL HIV reverse transcriptase
In words: Steady-state kinetics of nucleotide incorporation in a DNA hybrid by HIV reverse transcriptase. Conditions: 0.025 U/μL HIV reverse transcriptase, 250 nM primer/template, average of three determinations. It is filed as biochemical. As for the experimental part: Determination of Km and Kcat values for the incorporation of dATP and PMDTApp in a DNA hybrid was carried out under steady-state conditions as described by Creighton et al. in Methods in Enzymology (1995) 262:232-256. […] Results given below are the average of three independent determinations. The reaction mixture contained 250 nM primer/template complex 0.025 U/μL HIV reverse transcriptase, and the triphosphate nucleotides to be incorporated (dATP and PMDTApp, respectively). The template sequence and the primer sequence used in this experiment are shown below. The reaction was quenched after 1, 2 and 3 minutes by adding a double volume of stop solution (90% formamide, 0.05% bromophenol blue, 0.05% xylene cyanol and 50 mM EDTA). Samples were analyzed by gel electrophoresis on a 16% polyacrylamide ureum gel in TBE buffer (89 mM Tris-borate, 2 mM EDTA buffer, pH 8.3) after heating the samples for 5 minutes at 70° C. Products were visualised by phosphorimaging. The amount of radioactivity in the bands corresponding to the products of the enzymatic reactions was determined using the Optiquant Image Analysis Software (Packard). Rate profiles were determined using GraphPad Prism® software.

Consider `Nc1ncnc2c1ncn2[C@H]1C[C@H](O)[C@@H](COP(=O)(O)OP(=O)(O)OP(=O)(O)O)O1` [dATP, deoxy-adenosine triphosphate], for which the Kcat amounted to 0.66 min − 1 and the Km stood at 0.1 µM.
